Measurements published in US20260102407A1, “TREATMENT METHODS” (priority 2020, published 2026).

Assays:
VCAM-1 = assay: Immunohistochemical staining of rat retina, VCAM-1; type: in vivo; details: lasered rat retinas
Source text: (§1) Rat choroidal laser injury model. Male Brown Norway pigmented rats (8-14 week-old) were anesthetized by an intramuscular injection of Rompun® (xylazine)/Imalgene® (ketamine). Pupils were dilated by instillation of one drop of 0.5% tropicamide before laser burn. Six burns were created in both eyes on Day 0 by applying 170 mW of 532 nm laser light (Viridis laser, Quantel, France) on 75 μm spots around the optic nerve, between the main retinal vessel branches, for 0.1s, through the slit lamp and contact lens. Production of a bubble at the time of laser application confirmed the rupture of Bruch's membrane. […] After anaesthesia, 10% sodium fluorescein (250 μl/100 g body weight) was injected subcutaneously, and ocular fluorescence was recorded 10 min after dye injection. Fluorescein leakage was evaluated on Days 14 and 21 in the angiograms by two examiners masked to the study groups and graded for fluorescein intensity as follows: score 0: no leakage; 1: slightly stained; 2: moderately stained; 3: strongly stained.
(§2) Immunohistochemical staining of rat retina. […] IOD of positive staining (red chromogen) was assessed for CD31, VEGF-A165, pERK, FosB and VCAM-1 using Image-Pro Plus software (Cybernetics, Bethesda, MD). IOD in IPL and INL was quantified for CD31; OPL to OS for VEGF-A165; INL to ONL for pERK; GCL to OS for FosB; OLM for VCAM-1, using Image-Pro Plus. […]

pERK = assay: Immunohistochemical staining of rat retina, pERK; type: in vivo; details: lasered rat retinas
Source text: as §1, §2

[1] = system: THP-1 transendothelial migration; assay: Monocyte-transendothelial migration assay toward MCP-1; type: cell-based, human; details: HMEC; 20 ng/ml IL-1β; 24 h
Procedure: Monocyte-transendothelial migration assay. Millicell 8 μm polycarbonated culture plate inserts (Millipore) were coated with 0.1% porcine gelatin type A (Sigma) and then placed into 24-well plates. HMEC (5×10^4 cells/well) were seeded onto the insert and allowed to adhere overnight. Cells were then serum deprived for 24 h and treated with various compound treatments for 1 h. IL-1β (20 ng/ml) was added to stimulate the cells for 4 h and 500 μl of serum-free medium was added to the bottom of the 24-well plate along with the compound. THP-1 (5×10^5 cells in 100 μl) were added into the insert and 100 ng/ml MCP-1 (Sigma) was added to the lower well. After 24 h, the number of cells that had migrated though the endothelial layer was assessed by counting 100 μl of the suspension in the lower chamber using a Coulter cell counter (Beckman Coulter).

CCOC(=O)Nc1ccc2c(c1)C(=O)N(CC)c1ccccc1O2 [BT2, (10-ethyl-11-oxo-10,11-dihydro-dibenzo[b,f][1,4]oxazepin-2-yl)-carbamic acid ethyl ester]
inducible VCAM-1 expression in the OLM (VCAM-1): reduced inducible VCAM-1 expression | inducible pERK staining in the INL, OPL and ONL (pERK): suppressed inducible pERK staining | transendothelial migration of THP-1 monocytes toward MCP-1 [1]: inhibits the transendothelial migration
